# Experiments:
# Honeybees [1] = experiment: Long term Apidea experiment with bees fed a multiplicity of sterols; type: in vivo, honeybee; details: diet with isofucosterol and multiplicity of sterols; cycles of 21 days
# Method: Honeybees: Fully functional insulated styrofoam Apidea™ nucs comprised 3-5 mini frames populated with adult workers and 1 mated laying queen bee were populated with 300-400 ml of young adult workers (˜N<1,000 bees of mixed ages).
# Each treatment was tested with 3-6 colonies, each colony was fed ad libitum with the solid diet on the top feeder fitted with a mesh floor, and the quantity consumed was assessed at every feeding. The number of capped brood cells was assessed every 12 days. The number of bee seams was recorded during each inspection. If the colony reaches maximal size for the Apidea box, a super is added. Sugar syrup (34%) and water was provided in feeders inside the tent to prevent carbohydrate starvation and to stimulate foraging activity.
# In Example 4A, bees were fed with a diet containing 15-30% protein, 4-12% fat, 1% vitamins/minerals and >40% carbohydrates (Diet 1). […]
# FIG. 4—results of experiment 4A: Mean area of sealed brood (cm2) assessed every 12 days over a 15-week period. […]
# Black soldier flies = experiment: Black soldier fly feeding experiments; type: in vivo, Hermetia illucens
# Method: Adult survival and number of egg masses laid from a population fed with a pollen substitute diet (as specified in US2019/0090507 to Apix Biosciences) was measured daily using the methods of rearing described in Thinn and Kainoh 2022. JARQ 56 (2), 211-217 (2022). […] Black soldier fly (BSF) larvae were fed with a diet containing 22% protein, 4% fat as described in Hogsette 1992. J. Econ. Entomol. 85(6): 2291-2294 until ecclosion. Sterols were sourced as pure compounds added directly to diet to a total quantity of 0.1%. […] J. Entomol. 118: 297-306, 2021. […] Sterols were added to diet. Measurement of sterols in tissues was performed after saponification of BSF tissues using GC-MS as described in Boukid et al. 2022. Insects 12, 672.
# Honeybees [2] = experiment: Brood production in APIDEA nuc colonies; type: in vivo, honeybee; details: pollen-free diet with isofucosterol vs isofucosterol-free diet, increasing concentration
# Method: Honeybees: Fully functional insulated styrofoam APIDEA nucs comprised 5 mini frames populated with adult workers and 1 mated laying queen bee were populated with 300-400 ml of young adult workers (˜N<1,000 bees of mixed ages).
# Each treatment was tested with 3-6 colonies; each colony was fed with a 60-100 g patty (solid diet) on the top feeder fitted with a mesh floor. Diet was fed on the first day and again on day 6; the quantity consumed was measured on day 6 and day 15. If no larvae or eggs/queen are observed by day 6 then the experiment is terminated. The number of capped brood cells was counted on day 15. The number of bee seams was estimated during each inspection. Sugar syrup (34%) and water was provided in feeders inside the tent to prevent carbohydrate starvation and to stimulate foraging activity.
# In Example 3, bees were fed with a diet containing 10-18% protein, 6% fat, 1% vitamins/minerals and >75% carbohydrates.
# As the concentration of isofucosterol increased, the amount of brood produced in each colony increased (N>3 colonies/treatment). The pupae, and the number of new adults was counted over the entire 10-week period.
# adult worker honeybees = experiment: Survival of cohorts of bees on diets containing isofucosterol; type: in vivo, honeybee; details: pollen-free diet with isofucosterol vs isofucosterol-free diet
# Method: Newly emerged adult worker honeybees fed with a diet treatment and ad libitum access to water. The treatment diet contained the isofucosterol. Newly emerged bees were removed from the brood frame and cohorts of 30 bees per replicate were housed in plastic rearing cages. In all experiments, 10 cohorts of ˜30 bees each were used for each treatment group. In all diet's carbohydrate was maintained at 60% using sucrose and fat was maintained at 8%. Consumption of each diet was measured every day over the course of the experiment. The number of bees alive in the box was counted each day for 14 days.
# Example 2 represents the survival of cohorts of bees confined to feed on diets containing specific concentrations of isofucosterol (0%, 0.5% and 1% weight of diet), as shown in FIG. 2.
# [3] = system: adult worker honeybees (Apis mellifera) or adult worker bumblebees (Bombus terrestris); experiment: Two-choice preference assay, diet with or without isofucosterol; type: in vivo; details: choice of diet with or without isofucosterol, 5 days, FIG. 1
# Method: One treatment diet contained the isofucosterol and the other contained no sterol. Newly emerged bees were removed from the brood frame and cohorts of 30 bees per replicate were housed in plastic rearing cages. In all experiments, 10 cohorts of ˜30 bees each were used for each treatment group. […] Consumption of each diet was measured every 24 h for 5 days. Preference index was calculated as (amount of treatment consumed−amount of control consumed)/(total amount of food consumed). In Example 1, cohorts of bees were given a choice of diet with or without isofucosterol.
smiles,measurement,setting,value
"C/C=C(/CC[C@@H](C)[C@H]1CC[C@H]2[C@@H]3CC=C4C[C@@H](O)CC[C@]4(C)[C@H]3CC[C@]12C)C(C)C [isofucosterol, Isofucosterol]",brood production / brood development supported,Honeybees [1],more than 4 cycles
same,egg laying and egg hatching performance and adult longevity,Black soldier flies; cultivated Black Soldier Fly or beetle adults fed diet containing isofucosterol,improves
same,performance of adult and larval BSF,Black soldier flies; isofucosterol delivered through a pollen-free diet,increases the performance
same,bee brood production,Honeybees [2],increased
same,bee brood production,Honeybees [2]; listed as Isofucosterol,increases
same,survival of worker bees,adult worker honeybees,increases
same,isofucosterol concentration in the diet that bees preferred to consume,[3],at least 0.05%

# Source: patent US20240315283A1, “ISOFUCOSTEROL A KEY NUTRIENT FOR PHYTOSTEROL EATING ANIMALS SUCH AS POLLEN EATING AND ALGAE-EATING AND PLANKTON EATING ORGANISMS” (APIX BIOSCIENCES, priority 2021, published 2024)
